Test results taken from patent US20040077540A1, “Compositions and methods for modulating physiology of epithelial junctional adhesion molecules for enhanced mucosal delivery of therapeutic compounds” (Nastech Pharmaceutical Company Inc., priority 2002, published 2004).
Like-named read-outs stand apart in the source and are kept apart here. Where a SMILES comes first, the peptide text is derived from it. Where no end group is shown, it is not given here.

Key:
[1] = system: ciliary function in epithelial cell cultures; conditions: cited from earlier work
[2] = intraduodenal, rats, with 1% (w/v) saline dispersion of polycarbophil vs aqueous solution without polymer; cited from earlier work
[3] = MTT assay, viability of mucosal epithelial tissue; format: cell-based; design: concentration or dose not given beside the values; conditions: human, EpiAirway™ units (mucosal epithelial tissue)
Procedure: MTT is a cell-permeable tetrazolium salt which is reduced by mitochondrial dehydrogenase activity to an insoluble colored formazan by viable cells with intact mitochondrial function or by nonmitochondrial NAD(P)H dehydrogenase activity from cells capable of generating a respiratory burst. […] We have employed a MTT reagent kit prepared by MatTek Corp for their units in order to assess viability.
A. The MTT reagent is supplied as a concentrate and is diluted into a proprietary DMEM-based diluent on the day viability is to be assayed (typically the afternoon of the day in which permeation kinetics and TER were determined in the morning). The final MTT concentration is 1 mg/mL
B. The final MTT solution is added to wells of a 24-well microplate at a volume of 300 μL per well. As has been noted above, this volume is sufficient to contact the membranes of the EpiAirway™ units but imposes no significant positive hydrostatic pressure on the cells.
C. The units are removed from the 24-well plate in which they were placed after TER measurements, and after removing any excess liquid from the exterior surface of the units, they are transferred to the plate containing MTT reagent. The units in the plate are then placed in an incubator at 37° C. in an atmosphere of 5% CO2 in air for 3 hours.
D. At the end of the 3-hour incubation, the units containing viable cells will have turned visibly purple. The insoluble formazan must be extracted from the cells in their units to quantitate the extent of MTT reduction. Extraction of the formazan is accomplished by transferring the units to a 24-well microplate containing 2 mL extractant solution per well, after removing excess liquid from the exterior surface of the units as before. This volume is sufficient to completely cover both the membrane and the apical surface of the units. Extraction is allowed to proceed overnight at room temperature in a light-tight chamber. MTT extractants traditionally contain high concentrations of detergent, and destroy the cells.
E. At the end of the extraction, the fluid from within each unit and the fluid in its surrounding well are combined and transferred to a tube for subsequent aliquotting into a 96-well microplate (200 μL aliquots are optimal) and determination of absorbance at 570 nm on a VMax multiwell microplate spectrophotometer. […] The “blank” for the determination of formazan absorbance is a 200 μL aliquot of extractant to which no unit had been exposed. This absorbance value is assumed to constitute zero viability.
F. Two units from each kit of 24 EpiAirway™ units are left untreated during determination of permeation kinetics and TER. These units are employed as the positive control for 100% cell viability. In all the studies conducted, there was no statistically significant difference in the viability of the cells in these untreated cells compared to viability of cells in control units which had been sham treated for permeation kinetics and on which TER determinations had been performed. The absorbance of all units treated with test formulations is assumed to be linearly proportional to the percent viability of the cells in the units at the time of the incubation with MTT. It should be noted that this assay is carried out typically no sooner than four hours after introduction of the test material to the apical surface, and subsequent to rinsing of the apical surface of the units during TER determination.
The MTT assays were performed using MTT-100, MatTek kits. […] of the MTT solution was added into each well. Tissue inserts were gently rinsed with clean PBS and placed in the MTT solution. The samples were incubated at 37° C. for 3 hours. After incubation the cell culture inserts were then immersed with 2.0 mL of the extractant solution per well to completely cover each insert. The extraction plate was covered and sealed to reduce evaporation. Extraction proceeds overnight at RT in the dark. […]

[4] = system: EpiAirway™ units (mucosal epithelial tissue); test: LDH assay, cytolysis of EpiAirway units; format: cell-based
Text: While measurement of mitochondrial reductase activity by MTT reduction is a sensitive probe of cell viability, the assay necessarily destroys the cells and therefore can be carried out only at the end of each study. When cells undergo necrotic lysis, their cytotosolic contents are spilled into the surrounding medium, and cytosolic enzymes such as lactate dehydrogenase (LDH) can be detected in this medium. An assay for LDH in the medium can be performed on samples of medium removed at each time point of the two-hour determination of permeation kinetics. […] A. The recommended LDH assay for evaluating cytolysis of the EpiAirway™ units is based on conversion of lactate to pyruvate with generation of NADH from NAD. […] The formazan formed from reduction of INT is soluble, so that the entire assay for LDH activity can be carried out in a homogenous aqueous medium containing lactate, NAD, diaphorase, and INT. B. The assay for LDH activity is carried out on 50 μL aliquots from samples of “supernatant” medium surrounding an EpiAirway™ unit and collected at each time point. These samples were either stored for no longer than 24 h in the refrigerator or were thawed after being frozen within a few hours after collection. […] The aliquots are all transferred to a 96 well microplate. C. […] Thus, within experimental error, these sham-treated units show no cytolysis of the epithelial cells over the time course of the permeation kinetics measurements. D. […] This freeze-thaw cycle effectively lyses the cells and releases their cytosolic contents, including LDH, into the supernatant medium. […] E. To each well containing an aliquot of supernatant medium, a 50 μL aliquot of the LDH assay reagent is added. […] F. The reactions are terminated by addition of a “stop” solution of 1 M acetic acid, and within one hour of addition of the stop solution, the absorbance of the plate is determined at 490 nm. G.

[5] = system: aminopeptidases; conditions: cited from earlier work
[6] = aqueous solution at physiologic pH; cited from earlier work
[7] = system: ciliary beating frequency; conditions: cited from earlier work
[8] = formulations comprising the permeabilizing peptide, read-out: MTT assay results (viability)
[9] = formulations comprising the permeabilizing peptide

Compound	viability [3, 8] [%]	toxic effects on viability of mucosal epithelial tissue, LDH assay [4, 9]	further results
2-alkyl-4-hydroxyquinolines [pyo compound]	–	–	concentration producing ciliostasis / inhibiting ciliary motility [1]: 50 µg/mL
9-desglycinamide, 8-arginine vasopressin [DGAVP]	–	–	increase of bioavailability [2]: 3-5 fold
CC[C@H](C)[C@H](NC(=O)[C@H](CCCNC(=N)N)NC(=O)[C@@H](N)C(C)C)C(=O)N1CCC[C@H]1C(=O)O [NP-A, VRIP] (H-VRIP-OH)	> 80	no significant toxic effects	–
CC[C@H](C)[C@H](N)C(=O)N[C@H](C(=O)N[C@@H](C)C(=O)N[C@@H](CO)C(=O)O)[C@@H](C)O [NP-D, ITAS] (H-ITAS-OH)	> 80	no significant toxic effects	–
CC(C)[C@H](NC(=O)[C@@H](N)CO)C(=O)N[C@H](C(=O)N[C@@H](CCCNC(=N)N)C(=O)O)[C@@H](C)O [NP-E, SVTR] (H-SVTR-OH)	> 80	no significant toxic effects	–
CC(C)CC(N)B(O)O (centres unmarked) [boro-leucine]	–	–	effectiveness in enzyme inhibition relative to bestatin [5]: more than 100 times; effectiveness in enzyme inhibition relative to puromycin [5]: more than 1000 times
CCN(CC)/[N+]([O-])=N/O.CCNCC [diethylamine/NO]	–	–	rate (time) of NO release [6]: < 3 min
NCCN(CCN)/[N+]([O-])=N/O [diethylenetriamine/NO]	–	–	rate (time) of NO release [6]: approximately 20 hours
CCO [ethanol]	–	–	concentration reducing the in vitro ciliary beating frequency [7]: greater than 2%
AATGLYVDQ [NP-24]	> 80	no significant toxic effects	–
ALCNQFYTP [NP-25]	> 80	no significant toxic effects	–
DIYSTLLGLP [NP-41]	> 80	no significant adverse effects	–
EDTGTYTCM [NP-8]	–	–	viability [3]: > 80%; toxic effects on viability of mucosal epithelial tissue, LDH assay [4]: no significant toxic effects
GFSLGLWMEC [NP-42]	> 80	no significant adverse effects	–
GFSSPRVEW [NP-21]	–	–	viability [3]: > 80%; toxic effects on viability of mucosal epithelial tissue, LDH assay [4]: no significant toxic effects
GILRDFYSPL [NP-27]	> 80	no significant adverse effects	–
GSLYGSQIY [NP-23]	> 80	no significant toxic effects	–
GVNPTAQSS [NP-22]	> 80	no significant toxic effects	–
MTPVNARYEF [NP-28]	> 80	no significant adverse effects	–
NIIQDFYNPL [NP-31]	–	–	viability [3]: > 80%; toxic effects on viability of mucosal epithelial tissue, LDH assay [4]: no significant adverse effects
NTIIRDFYNP [NP-10]	> 80	no significant adverse effects	–
TGITFKSVT [NP-C]	–	–	viability [3]: > 80%; toxic effects on viability of mucosal epithelial tissue, LDH assay [4]: no significant toxic effects
VASGQKREMG [NP-29]	–	–	viability [3]: > 80%; toxic effects on viability of mucosal epithelial tissue, LDH assay [4]: no significant adverse effects
VKLSCAY [NP-B, VKLSCAY]	–	–	viability [3]: > 80%; toxic effects on viability of mucosal epithelial tissue, LDH assay [4]: no significant toxic effects
VPDSMKFEIG [NP-30]	> 80	no significant adverse effects	–
VPVSQKYELG [NP-32]	> 80	no significant adverse effects	–
VVPEAQKREM [NP-33]	> 80	no significant adverse effects	–
YAGDNIVTAQ [NP-17]	–	–	viability [3]: > 80%; toxic effects on viability of mucosal epithelial tissue, LDH assay [4]: no significant adverse effects
YLYHYCVVD [NP-26]	> 80	no significant toxic effects	–
